Assays:
p300 HAT domain = molecular target: T1, p300 HAT domain (Homo sapiens, UniProt Q09472); conditions: for LE (ligand efficiency): LE = −1.4 log Ki/# heavy atoms
T1 sequence (Q09472 1287-1663 limits assumed): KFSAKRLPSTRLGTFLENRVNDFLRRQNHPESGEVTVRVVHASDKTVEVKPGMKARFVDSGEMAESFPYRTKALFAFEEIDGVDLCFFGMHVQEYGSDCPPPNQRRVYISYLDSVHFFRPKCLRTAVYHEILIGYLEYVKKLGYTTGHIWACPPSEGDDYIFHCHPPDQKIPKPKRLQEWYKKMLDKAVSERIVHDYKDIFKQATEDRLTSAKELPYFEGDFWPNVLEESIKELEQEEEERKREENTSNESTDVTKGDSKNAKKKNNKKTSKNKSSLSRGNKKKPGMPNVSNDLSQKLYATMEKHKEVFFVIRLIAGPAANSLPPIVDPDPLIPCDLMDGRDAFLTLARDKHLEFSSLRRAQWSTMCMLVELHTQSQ

[1] = mouse
[2] = Mouse microsomal stability; assay type: in vitro ADME; conditions: microsomes
[3] = Nonspecific microsomal binding; assay type: in vitro ADME; conditions: human, microsomes
Plasma protein binding = assay type: in vitro ADME; conditions: mouse
in vivo = conditions: mouse, plasma, po, 1 mg/kg

Row | SMILES | LE (ligand efficiency) (p300 HAT domain) | CLint scaled [2] [L/h/kg] | mouse microsomal stability CL scaled [2] [L/h/kg] | other results
1 | CC(C1CC1)N(Cc1ccccc1)C(=O)CN1C(=O)NC(Cc2c[nH]c3ccccc23)C1=O (stereo not drawn) [Compound 1] | 0.23 | – | – | LipE (lipid efficiency) (p300 HAT domain; LipE = −log Ki – clogP): 3
2 | Cc1ccccc1C1NC(=O)N(CC(=O)N(Cc2ccccc2)[C@@H](C)C2CC2)C1=O (stereo partly drawn) [Compound 3b] | 0.27 | – | – | –
3 | CNC(=O)Nc1ccc2c(c1)CC[C@]21NC(=O)N(CC(=O)N(Cc2ccccc2)[C@@H](C)C2CC2)C1=O [Compound 20] | – | – | – | oral AUC ([1]; 10 mg/kg oral dose): no exposure
4 | CNC(=O)Nc1ccc2c(c1)CC[C@@]21OC(=O)N(CC(=O)N(Cc2ccccc2)[C@@H](C)C2CC2)C1=O [Compound 22] | – | 188 | 107 | –
5 | CNC(=O)Nc1ccc2c(c1)CC[C@@]21OC(=O)N(CC(=O)N(Cc2ccc(F)cc2)[C@H](C2CC2)C(F)(F)F)C1=O [Compound 23] | – | 181 | 41 | fraction unbound [3]: 0.22; fraction unbound (Plasma protein binding): 0.002; F % oral [1]: 45%; AUC (in vivo): 1100 ng·h/mL
